In patent publication US20100016357A1, “Use of Beta-Aminoalcohols for the Treatment of Inflammatory Disorders and Pain” (SOSEI R & D LTD., priority 2006, published 2010):

Experiments:
[1] = test system: LPS-induced TNFα and IL1β cytokine production; assay: LPS Mouse Assay (serum cytokines by ELISA); assay type: in vivo, Balb C ByJ mice; details: mice, i.p. or oral, 30 minutes before 1 mg/kg LPS i.p.; serum 2 hours after LPS
Procedure: 7 week old Balb C ByJ mice (24-28 g) were administered, either by i.p. (5 ml/kg) or oral (10 ml/kg) administration, with vehicle or test article. 30 minutes later these animals were challenged with an intraperitoneal injection of 1 mg/kg LPS. 2 hours after LPS challenge blood samples were collected under light isoflurane anaesthesia into normal tubes by retro-orbital puncture. Samples were allowed to clot at room temperature and then spun at 6000 g for 3 min at 4° C. Serum was stored at −20° C. until use. Serum TNFα and IL-10 levels were analysed in duplicate by ELISA technique.

[2] = target: T1, Beta2 (Cavia porcellus, UniProt Q8K4Z4); assay: Beta2 Agonism Functional Assay (inhibition of carbachol-stimulated tracheal muscle twitch); assay type: cell-based; details: Guinea-pig trachea ring preparations contracted with carbachol
T1 construct: from tissue; host or cells: guinea-pig trachea rings
T1 sequence (Q8K4Z4 whole entry): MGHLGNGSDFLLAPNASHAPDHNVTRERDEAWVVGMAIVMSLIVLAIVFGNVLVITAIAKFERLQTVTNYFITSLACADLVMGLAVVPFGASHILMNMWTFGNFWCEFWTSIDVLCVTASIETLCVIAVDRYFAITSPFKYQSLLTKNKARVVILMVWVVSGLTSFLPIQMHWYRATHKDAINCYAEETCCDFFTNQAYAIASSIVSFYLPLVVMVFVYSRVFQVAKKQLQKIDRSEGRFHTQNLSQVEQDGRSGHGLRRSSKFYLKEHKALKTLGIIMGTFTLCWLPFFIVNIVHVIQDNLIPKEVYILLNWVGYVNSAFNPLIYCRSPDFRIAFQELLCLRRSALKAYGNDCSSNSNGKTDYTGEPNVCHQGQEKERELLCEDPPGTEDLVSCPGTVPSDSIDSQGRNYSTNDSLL
Procedure: Guinea-pig trachea ring preparations were suspended in Kreb's solution containing indomethacin. […] Beta2 agonism for each test compound was determined by its dose-dependant inhibition of carbachol-stimulated tracheal muscle twitch.

Row | Structure (SMILES) | effect on LPS-induced IL1β production [1] | effect on LPS-induced TNFα production [1] | beta2 agonism (in words) [2] | IC50 ([2]; inhibition of tracheal muscle twitch) [nM]
1 | Nc1c(Cl)cc(C(O)C2CCCCN2)cc1Cl (single isomer, unassigned) [Compound 11, Threo-(3,5-Dichloro-4-amino-phenyl)-piperidin-2-yl-methanol] | had effects | had effects | poor, beta2 agonists | 
2 | Nc1c(Cl)cc(C(O)C2CCCCN2)cc1Cl (single isomer, unassigned) [Compound 10, Threo-(3,5-dichloro-4-amino-phenyl)-piperidin-2-yl-methanol] | had effects | had effects | poor, beta2 agonists | 
3 | Nc1c(Cl)cc(C(O)C2CCCCN2)cc1Cl (single isomer, unassigned) [Compound 8, (Erythro)-(3,5-dichloro-4-amino-phenyl)-piperidin-2-yl-methanol] | had effects | had effects | poor, beta2 agonists | 
4 | Nc1c(Cl)cc(C(O)C2CCCCN2)cc1Cl (single isomer, unassigned) [Compound 7, Erythro-(3,5-dichloro-4-amino-phenyl)-piperidin-2-yl-methanol] | had effects | had effects | poor, beta2 agonists | > 2000
